From patent US20070282007A1, “TREATMENT OF PAIN DISORDERS WITH trans 4-(3,4-DICHLOROPHENYL)-1,2,3,4-TETRAHYDRO-1-NAPHTHALENAMINE AND ITS FORMAMIDE” (SEPRACOR INC., priority 2006, published 2007)
Where two headings read alike, the source gives them in different places.

Columns and labels:
[1] = biological target: T1, Norepinephrine (NE) uptake (Rattus norvegicus, UniProt Q63380); assay: Functional uptake of radiolabeled NE into synaptosomes from rat hypothalamus; format: biochemical
T1 construct: from tissue; host or cells: synaptosomes from rat hypothalamus
T1 sequence (Q63380 1-617): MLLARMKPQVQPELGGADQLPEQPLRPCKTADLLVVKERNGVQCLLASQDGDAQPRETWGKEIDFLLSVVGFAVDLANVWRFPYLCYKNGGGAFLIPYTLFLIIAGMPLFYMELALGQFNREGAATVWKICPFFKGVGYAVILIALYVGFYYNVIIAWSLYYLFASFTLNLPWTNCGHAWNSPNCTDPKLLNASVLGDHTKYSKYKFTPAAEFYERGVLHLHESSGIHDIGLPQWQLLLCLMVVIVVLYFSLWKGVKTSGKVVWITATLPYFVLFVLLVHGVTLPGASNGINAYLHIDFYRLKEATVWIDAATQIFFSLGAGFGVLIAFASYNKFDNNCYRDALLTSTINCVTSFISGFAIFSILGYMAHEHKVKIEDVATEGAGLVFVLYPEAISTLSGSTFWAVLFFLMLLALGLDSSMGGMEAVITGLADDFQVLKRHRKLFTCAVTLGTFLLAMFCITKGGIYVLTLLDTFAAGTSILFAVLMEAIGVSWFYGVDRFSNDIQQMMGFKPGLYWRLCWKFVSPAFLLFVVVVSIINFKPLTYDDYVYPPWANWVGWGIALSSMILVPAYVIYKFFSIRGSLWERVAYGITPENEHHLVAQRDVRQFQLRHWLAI
Procedure: The 5-HT and NE assays were performed essentially as outlined in Perovic S. & Müller W. E. G., Arzneim.-Forsch.

Dopamine (DA) uptake = Dopamine (DA) uptake (Rattus norvegicus, UniProt P23977); assay: biochemical
Dopamine (DA) uptake, sequence (P23977 whole entry): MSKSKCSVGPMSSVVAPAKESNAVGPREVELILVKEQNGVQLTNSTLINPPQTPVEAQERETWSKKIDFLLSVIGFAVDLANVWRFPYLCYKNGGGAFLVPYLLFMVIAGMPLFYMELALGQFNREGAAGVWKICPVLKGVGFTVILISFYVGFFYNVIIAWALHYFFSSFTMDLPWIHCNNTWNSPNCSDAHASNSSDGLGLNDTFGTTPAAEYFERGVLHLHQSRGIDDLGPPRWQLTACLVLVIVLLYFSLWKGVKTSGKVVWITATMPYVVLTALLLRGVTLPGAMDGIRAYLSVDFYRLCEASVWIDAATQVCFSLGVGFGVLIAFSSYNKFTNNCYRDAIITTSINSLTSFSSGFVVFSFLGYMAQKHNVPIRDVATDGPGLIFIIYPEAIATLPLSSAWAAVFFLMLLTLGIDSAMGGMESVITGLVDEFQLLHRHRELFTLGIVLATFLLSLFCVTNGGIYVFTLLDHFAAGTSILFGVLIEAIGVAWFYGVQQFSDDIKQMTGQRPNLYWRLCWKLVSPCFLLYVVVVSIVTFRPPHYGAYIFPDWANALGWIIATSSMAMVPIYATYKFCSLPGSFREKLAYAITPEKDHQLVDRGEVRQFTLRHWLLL

M5 = biological target: T2, M5 (Homo sapiens, UniProt P08912); assay: In vitro radioligand binding assay, M5
T2 sequence (P08912 1-532): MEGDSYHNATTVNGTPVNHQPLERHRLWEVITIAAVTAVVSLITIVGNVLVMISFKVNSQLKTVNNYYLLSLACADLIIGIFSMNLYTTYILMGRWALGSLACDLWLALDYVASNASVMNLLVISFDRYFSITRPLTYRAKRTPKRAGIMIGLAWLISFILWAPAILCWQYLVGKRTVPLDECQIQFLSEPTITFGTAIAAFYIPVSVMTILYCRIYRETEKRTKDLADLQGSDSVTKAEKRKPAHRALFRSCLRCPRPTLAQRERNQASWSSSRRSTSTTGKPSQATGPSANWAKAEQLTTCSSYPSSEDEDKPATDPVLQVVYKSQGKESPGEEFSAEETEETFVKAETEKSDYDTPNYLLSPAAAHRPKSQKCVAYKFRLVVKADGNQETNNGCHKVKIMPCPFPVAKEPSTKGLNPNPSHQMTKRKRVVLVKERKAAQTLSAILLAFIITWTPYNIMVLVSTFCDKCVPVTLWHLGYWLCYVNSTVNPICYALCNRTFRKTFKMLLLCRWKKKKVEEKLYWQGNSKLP

5-HT1A = biological target: T3, 5-HT1A (Homo sapiens, UniProt P08908); assay: In vitro radioligand binding assay, 5-HT1A
T3 sequence (P08908 1-422): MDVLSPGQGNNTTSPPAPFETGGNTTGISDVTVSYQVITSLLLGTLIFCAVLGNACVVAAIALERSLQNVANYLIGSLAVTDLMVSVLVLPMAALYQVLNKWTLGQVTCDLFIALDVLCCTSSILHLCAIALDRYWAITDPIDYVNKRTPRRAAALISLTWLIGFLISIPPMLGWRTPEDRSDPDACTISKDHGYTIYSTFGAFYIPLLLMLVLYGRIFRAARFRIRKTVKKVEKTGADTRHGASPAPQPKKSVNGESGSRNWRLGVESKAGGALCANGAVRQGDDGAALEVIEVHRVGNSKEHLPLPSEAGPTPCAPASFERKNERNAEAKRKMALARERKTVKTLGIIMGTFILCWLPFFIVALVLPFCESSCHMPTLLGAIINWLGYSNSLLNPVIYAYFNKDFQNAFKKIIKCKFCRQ

B2 = B2 (Homo sapiens, UniProt P30411); assay: In vitro radioligand binding assay, B2
B2, sequence (P30411 whole entry): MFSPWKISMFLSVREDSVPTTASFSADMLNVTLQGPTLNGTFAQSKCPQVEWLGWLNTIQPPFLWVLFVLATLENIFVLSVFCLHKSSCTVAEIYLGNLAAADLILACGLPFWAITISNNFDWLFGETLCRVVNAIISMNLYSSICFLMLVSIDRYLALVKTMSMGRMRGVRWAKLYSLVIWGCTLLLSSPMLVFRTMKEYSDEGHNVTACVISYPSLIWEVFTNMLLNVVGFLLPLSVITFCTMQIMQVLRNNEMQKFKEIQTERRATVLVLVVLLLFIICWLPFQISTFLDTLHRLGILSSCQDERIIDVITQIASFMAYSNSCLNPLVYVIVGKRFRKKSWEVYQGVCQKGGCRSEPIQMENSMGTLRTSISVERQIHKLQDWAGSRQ

M3 receptor = biological target: T4, M3 receptor (Cavia porcellus, UniProt H0W1Z3); assay: Carbachol-induced contraction of the isolated Guinea pig ileum; details: reference antagonist
T4 construct: from tissue; host or cells: isolated guinea pig ileum
T4 sequence (H0W1Z3 1-590): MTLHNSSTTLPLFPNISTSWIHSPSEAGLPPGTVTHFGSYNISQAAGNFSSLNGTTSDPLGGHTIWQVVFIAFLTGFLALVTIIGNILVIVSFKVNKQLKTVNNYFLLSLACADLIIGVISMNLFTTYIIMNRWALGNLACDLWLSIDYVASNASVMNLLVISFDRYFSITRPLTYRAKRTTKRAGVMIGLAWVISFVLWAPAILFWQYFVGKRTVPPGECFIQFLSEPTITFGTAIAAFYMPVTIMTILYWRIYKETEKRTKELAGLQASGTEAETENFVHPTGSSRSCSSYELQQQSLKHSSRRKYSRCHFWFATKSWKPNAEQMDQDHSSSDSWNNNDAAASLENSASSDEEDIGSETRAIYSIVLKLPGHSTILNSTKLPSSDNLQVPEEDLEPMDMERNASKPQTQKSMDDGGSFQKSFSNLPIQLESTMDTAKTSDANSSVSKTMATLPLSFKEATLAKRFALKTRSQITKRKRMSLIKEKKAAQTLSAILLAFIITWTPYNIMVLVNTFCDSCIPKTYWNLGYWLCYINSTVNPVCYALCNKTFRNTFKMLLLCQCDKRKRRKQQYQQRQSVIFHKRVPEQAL

[2] = biological target: T5, recombinant human Norepinephrine (NE) transporter (Homo sapiens, UniProt P23975); assay: Functional uptake of NE into cells expressing recombinant human transporters; format: cell-based; details: read-out: IC50 inhibition of functional uptake in human transporters, Norepinephrine (NE)
T5 construct: expressed in transfected cells
T5 sequence (P23975 whole entry): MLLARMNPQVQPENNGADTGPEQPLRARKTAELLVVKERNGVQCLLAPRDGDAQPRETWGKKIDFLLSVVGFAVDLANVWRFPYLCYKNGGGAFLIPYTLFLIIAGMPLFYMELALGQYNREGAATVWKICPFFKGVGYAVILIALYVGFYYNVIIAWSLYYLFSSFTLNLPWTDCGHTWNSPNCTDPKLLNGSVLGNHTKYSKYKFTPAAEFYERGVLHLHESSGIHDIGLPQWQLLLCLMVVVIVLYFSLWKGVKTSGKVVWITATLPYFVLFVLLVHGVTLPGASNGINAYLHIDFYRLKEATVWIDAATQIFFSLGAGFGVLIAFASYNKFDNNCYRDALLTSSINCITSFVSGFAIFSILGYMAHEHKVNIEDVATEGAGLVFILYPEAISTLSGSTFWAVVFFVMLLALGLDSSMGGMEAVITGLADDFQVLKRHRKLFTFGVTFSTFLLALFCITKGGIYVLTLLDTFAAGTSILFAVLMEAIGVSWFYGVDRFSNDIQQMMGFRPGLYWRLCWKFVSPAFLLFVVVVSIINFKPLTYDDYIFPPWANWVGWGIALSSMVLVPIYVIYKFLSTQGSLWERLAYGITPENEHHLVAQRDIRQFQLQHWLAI

[3] = biological target: T6, recombinant human Dopamine (DA) transporter (Homo sapiens, UniProt Q01959); assay: Functional uptake of DA into cells expressing recombinant human transporters; format: cell-based; details: read-out: IC50 inhibition of functional uptake in human transporters, Dopamine (DA)
T6 construct: expressed in transfected cells
T6 sequence (Q01959 whole entry): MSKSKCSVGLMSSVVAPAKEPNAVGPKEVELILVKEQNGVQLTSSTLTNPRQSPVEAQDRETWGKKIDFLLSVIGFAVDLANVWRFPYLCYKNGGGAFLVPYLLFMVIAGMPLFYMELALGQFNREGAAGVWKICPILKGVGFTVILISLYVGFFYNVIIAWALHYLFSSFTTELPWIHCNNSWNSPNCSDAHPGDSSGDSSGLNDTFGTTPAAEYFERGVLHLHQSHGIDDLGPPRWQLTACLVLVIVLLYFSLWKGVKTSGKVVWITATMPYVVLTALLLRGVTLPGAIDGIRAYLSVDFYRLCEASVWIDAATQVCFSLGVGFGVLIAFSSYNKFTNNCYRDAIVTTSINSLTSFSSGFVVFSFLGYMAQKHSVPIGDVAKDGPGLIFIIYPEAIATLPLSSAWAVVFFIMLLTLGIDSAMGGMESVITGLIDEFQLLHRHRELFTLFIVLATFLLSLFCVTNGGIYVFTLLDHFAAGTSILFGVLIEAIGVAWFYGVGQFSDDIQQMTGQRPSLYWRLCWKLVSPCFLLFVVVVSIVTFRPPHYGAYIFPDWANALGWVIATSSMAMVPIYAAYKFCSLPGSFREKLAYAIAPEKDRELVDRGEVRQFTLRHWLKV

5-HT1B = 5-HT1B (Homo sapiens, UniProt P28222); assay: In vitro radioligand binding assay, 5-HT1B
5-HT1B, sequence (P28222 whole entry, species assumed): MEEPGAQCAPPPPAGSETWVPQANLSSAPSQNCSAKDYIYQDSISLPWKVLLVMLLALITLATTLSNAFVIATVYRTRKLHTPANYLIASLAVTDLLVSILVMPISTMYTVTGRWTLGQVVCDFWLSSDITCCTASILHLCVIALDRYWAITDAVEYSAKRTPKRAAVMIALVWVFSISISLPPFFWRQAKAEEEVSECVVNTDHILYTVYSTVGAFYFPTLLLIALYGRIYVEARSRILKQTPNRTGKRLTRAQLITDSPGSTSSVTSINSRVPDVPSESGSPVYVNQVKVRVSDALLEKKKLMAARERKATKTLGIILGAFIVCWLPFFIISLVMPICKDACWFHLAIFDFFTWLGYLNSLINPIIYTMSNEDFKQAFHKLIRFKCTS

Na^+ Channel Site 2 = assay: In vitro radioligand binding assay, Na+ channel site 2
[4] = biological target: Ca^2+ Channel Verapamil Site; assay: In vitro radioligand binding assay, Ca2+ channel verapamil site
rats [5] = assay: Formalin paw test in the rat (late phase), flinches counted; format: in vivo
Procedure: Rats were given an intraplantar injection of 5% formalin (50 μl) into the posterior left paw. […] The number of flinches was counted for 15 minutes, beginning 20 minutes after injection of formalin. Eight rats were studied per group. The test was performed blind. […] Data were analyzed by comparing treated groups with vehicle control using unpaired Mann-Whitney U tests.

rats [6] = assay: Formalin test, second test with Automated Nociception Analyzer; format: in vivo, rat; details: automated detection; for Number of Flinches, Acute Phase (Mean ± SEM): 0-10 minutes after formalin; for Number of Flinches, Late Phase (Mean ± SEM): 10-60 minutes after formalin
Procedure: In a second test, flinching behaviors were measured for 90 minutes after formalin injection using an automated detection system. […] This device used a magnetic detection system to measure paw movements, called “flinches”. Small metal bands were attached to the left hind paw of rats just before placement into individual circular test chambers 30 minutes prior to formalin injection. […] In addition to duloxetine, morphine (6 mg/kg, subcutaneously) was used as a comparator substance. Animals were treated with morphine 30 minutes prior to the formalin injection. To initiate the experiment, the rats were injected with formalin subcutaneously on the dorsal surface of the left hind paw and placed in the test chambers. The instrument subsequently recorded rapid foot movements counted in one minute epochs.

Rat SNL Model [7] = assay: SNL model of neuropathic pain, mechanical allodynia testing; format: in vivo
Procedure: (§1) The animals were anesthetized with isoflurane, the left L5 transverse process was removed, and the L5 and L6 spinal nerves were tightly ligated with 6-0 silk suture. The wound was then closed with internal sutures and external staples. Wound clips were removed 10-11 days following surgery.
Animals were placed on a perforated metallic platform and allowed to acclimate to their surroundings for a minimum of 30 minutes before testing. The mean and standard error of the mean (SEM) were determined for each animal in each treatment group. Since this stimulus is normally not considered painful, significant injury-induced increases in responsiveness in this test are interpreted as a measure of mechanical allodynia. Mechanical allodynia was evaluated 14 days post-surgery.
(§2) Ten rats were studied per group and the tests were performed blind. (1R,4S)-4-(3,4-dichlorophenyl)-1,2,3,4-tetrahydro-1-naphthalenamine (P) was evaluated at 3 doses (5, 10 and 15 mg/kg), administered orally and compared with a vehicle control group. Gabapentin (100 mg/kg) and duloxetine (30 mg/kg) administered orally under the same experimental conditions, were used as comparator substances. Mechanical allodynia and hyperalgesia testing were conducted at baseline and 1, 2 and 4 hours after test article administration.

Rat SNL Model [8] = assay: SNL model of neuropathic pain, mechanical hyperalgesia testing; format: in vivo
Procedure: as §1
Mechanical hyperalgesia testing: Baseline, post-injury and post-treatment values for […] mechanical sensitivity were evaluated using a Paw Pressure Analgesymeter (7200, Ugo Basile, Comerio, Italy) which generates a linearly increasing mechanical force. The mechanical nociceptive stimulus was applied to the plantar surface of the hind paws by a dome-shaped plastic tip placed between the 3rd and 4th metatarsus. […] Mechanical thresholds were defined as the force in grams at the first pain behavior, which includes paw withdrawal, struggle and/or vocalization. Paw pressure test was performed on each hind paw for each animal. The mean and standard error of the mean (SEM) were determined for each paw, in each treatment group. Mechanical hyperalgesia was evaluated 24 days post-surgery.
as §2

H2 = H2 (Homo sapiens, UniProt P25021); assay: In vitro radioligand binding assay, H2
H2, sequence (P25021 whole entry): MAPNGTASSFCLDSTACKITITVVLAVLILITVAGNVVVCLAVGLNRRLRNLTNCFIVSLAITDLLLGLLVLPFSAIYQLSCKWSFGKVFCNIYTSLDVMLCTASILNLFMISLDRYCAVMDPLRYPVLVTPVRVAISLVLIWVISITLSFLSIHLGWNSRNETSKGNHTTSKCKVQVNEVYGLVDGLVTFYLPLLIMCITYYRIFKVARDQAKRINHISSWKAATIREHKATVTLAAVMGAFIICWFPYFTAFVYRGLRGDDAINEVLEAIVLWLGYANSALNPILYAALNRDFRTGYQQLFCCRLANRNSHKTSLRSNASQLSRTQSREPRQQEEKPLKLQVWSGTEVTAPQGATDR

[9] = 30 mg/kg p.o. 60 min before the test
[10] = 128 mg/kg p.o. 60 min before the test

## N[C@@H]1CC[C@@H](c2ccc(Cl)c(Cl)c2)c2ccccc21 (racemic) [1:1 mixture of Compounds P & Q, trans-4-(3,4-dichlorophenyl)-1,2,3,4-tetrahydro-1-napthalenamine]
[1]
  IC50: 0.0088 µM
Dopamine (DA) uptake
  IC50: 0.0071 µM

## CC(NC(C)(C)C)C(=O)c1cccc(Cl)c1 (stereo not shown) [Bupropion, reference compound]
[1]
  IC50: 0.611 µM
Dopamine (DA) uptake
  IC50: 0.294 µM

## CN(C)CCCC1(c2ccc(F)cc2)OCc2cc(C#N)ccc21 (stereo not shown) [Citalopram]
[1]
  IC50: 7.9 µM
M5; read-out: Ki, M5
  Ki: 29 µM
5-HT1A
  Ki: 15 µM
B2
  Ki: > 100 µM

## C[N+]1(C)CCC(OC(=O)C(c2ccccc2)c2ccccc2)CC1.[I-] [Compound 4-DAMP, 4-DAMP, reference compound]
M3 receptor
  pA2: pA2 = 9.2
M3 receptor; read-out: IC50 for inhibition of carbachol-induced contraction of the Guinea Pig ileum
  IC50: 0.033 µM

## N[C@H]1CC[C@H](c2ccc(Cl)c(Cl)c2)c2ccccc21 [Compound Q, (1S,4R)-trans 4-(3,4-dichlorophenyl)-1,2,3,4-tetrahydro-1-napthalenamine]
[1]
  IC50: 0.035 µM
Dopamine (DA) uptake
  IC50: 0.019 µM
[2]
  IC50: 0.0165 µM
[3]
  IC50: 0.0144 µM

## CNCCCN1c2ccccc2CCc2ccccc21 [Desipramine]
M5; read-out: Ki, M5
  Ki: 0.47 µM
5-HT1B
  Ki: 2.7 µM
Na^+ Channel Site 2
  Ki: 0.91 µM
[4]
  Ki: 0.31 µM

## CNCC[C@H](Oc1cccc2ccccc12)c1cccs1 [Duloxetine, reference compound]
Rats [5]; [9]
  NUMBER OF FLINCHES (20 to 35 min after formalin), mean ± s.e.m.: 71.4 ± 17.2NS
  NUMBER OF FLINCHES, % change from control: −20%
Rats [6]; 30 mg/kg PO
  Number of Flinches, Acute Phase (Mean ± SEM): 168 ± 24
  Number of Flinches, Late Phase (Mean ± SEM): 803 ± 112
Rat SNL Model [7]; 30 mg/kg PO, 0 h (Baseline)
  Mechanical Allodynia, Paw Withdrawal Threshold (Mean ± SEM): 2.6 ± 0.2 g
Rat SNL Model [7]; 30 mg/kg PO, 1 h
  Mechanical Allodynia, Paw Withdrawal Threshold (Mean ± SEM): 7.0 ± 0.5 g
Rat SNL Model [7]; 30 mg/kg PO, 2 h
  Mechanical Allodynia, Paw Withdrawal Threshold (Mean ± SEM): 7.9 ± 0.6 g
Rat SNL Model [7]; 30 mg/kg PO, 4 h
  Mechanical Allodynia, Paw Withdrawal Threshold (Mean ± SEM): 8.1 ± 0.6 g
Rat SNL Model [8]; 30 mg/kg PO, 0 h (Baseline)
  Mechanical Hyperalgesia, Paw Pressure Threshold (Mean ± SEM): 153 ± 9 g
Rat SNL Model [8]; 30 mg/kg PO, 1 h
  Mechanical Hyperalgesia, Paw Pressure Threshold (Mean ± SEM): 306 ± 30 g
Rat SNL Model [8]; 30 mg/kg PO, 2 h
  Mechanical Hyperalgesia, Paw Pressure Threshold (Mean ± SEM): 345 ± 22 g
Rat SNL Model [8]; 30 mg/kg PO, 4 h
  Mechanical Hyperalgesia, Paw Pressure Threshold (Mean ± SEM): 330 ± 25 g

## NCC1(CC(=O)O)CCCCC1 [Gabapentin, reference compound]
Rat SNL Model [7]; 100 mg/kg PO, 0 h (Baseline)
  Mechanical Allodynia, Paw Withdrawal Threshold (Mean ± SEM): 2.7 ± 0.1 g
Rat SNL Model [7]; 100 mg/kg PO, 1 h
  Mechanical Allodynia, Paw Withdrawal Threshold (Mean ± SEM): 6.6 ± 0.4 g
Rat SNL Model [7]; 100 mg/kg PO, 2 h
  Mechanical Allodynia, Paw Withdrawal Threshold (Mean ± SEM): 9.8 ± 0.5 g
Rat SNL Model [7]; 100 mg/kg PO, 4 h
  Mechanical Allodynia, Paw Withdrawal Threshold (Mean ± SEM): 6.2 ± 0.4 g
Rat SNL Model [8]; 100 mg/kg PO, 0 h (Baseline)
  Mechanical Hyperalgesia, Paw Pressure Threshold (Mean ± SEM): 135 ± 20 g
Rat SNL Model [8]; 100 mg/kg PO, 1 h
  Mechanical Hyperalgesia, Paw Pressure Threshold (Mean ± SEM): 219 ± 32 g
Rat SNL Model [8]; 100 mg/kg PO, 2 h
  Mechanical Hyperalgesia, Paw Pressure Threshold (Mean ± SEM): 236 ± 29 g
Rat SNL Model [8]; 100 mg/kg PO, 4 h
  Mechanical Hyperalgesia, Paw Pressure Threshold (Mean ± SEM): 255 ± 29 g

## CN1CC[C@]23c4c5ccc(O)c4O[C@H]2[C@@H](O)C=C[C@H]3[C@H]1C5 [Morphine, reference compound]
Rats [5]; [10]
  NUMBER OF FLINCHES (20 to 35 min after formalin), mean ± s.e.m.: 0.0 ± 0.0
  NUMBER OF FLINCHES, % change from control: −100%
Rats [6]; 100 mg/kg SC
  Number of Flinches, Acute Phase (Mean ± SEM): 36 ± 9
  Number of Flinches, Late Phase (Mean ± SEM): 32 ± 13

## COc1ccc(C(CN(C)C)C2(O)CCCCC2)cc1 (stereo not shown) [Venlafaxine]
M5
  Ki: > 100 µM
Na^+ Channel Site 2
  Ki: 12 µM
[4]
  Ki: 4.8 µM
H2
  Ki: 89 µM
